Results: US8904703B2, “Herbicide method and apparatus” (priority 2011, dated 2014)

Assays:
[1] = test system: surrounding plant life; assay: Field trials: effect of the Kudzu vine treatment on surrounding plant life; type: in vivo; details: observed through growth of new grass and new leaf growth
Description: (§1) In operation, the chuck on a battery powered drill (not shown in the drawing) connects the drill to the drill shank 23. The tube 10 is placed near a Kudzu vine stem as that stem protrudes above the earth with the longitudinal tube axis 17 of the tube 10 generally perpendicular to the surface of earth 35 to press drill bit 11 against the soil. Preferably a 1.6 cm diameter black oxide coated drill bit is suitable for this purpose.
(§2) The drill is energized and the torque applied by the drill turns the tube 10 and the drill bit 11, causing the drill bit 11 and the balance of the tube 10 to bore into the earth. The drilling is continued until all of the perforations in the two perforation sets 12A and 22A are well below the surface of the earth, whereupon the drill is deactivated and disconnected from the shank 23.
(§3) A first of the two helium canisters 33 is then coupled through the flexible conduit 32 and the gas adapter 31 to the valve 28. Valve handle 34 is shifted to a valve open position and helium gas flows from the canister 33, through the valve 28 and into the hollow center 24 (FIG. 2) of the tube 10.
(§4) Once in the tube 10, under the gas pressure supplied by the helium canister 33, the helium gas disperses into soil 36 surrounding the tube 10 through the perforations in the sets 12A and 22A and migrates in the soil 36 to Kudzu vine root 37. […]

[2] = test system: Kudzu vines (pueraria lobata); assay: Field trials of helium gas applied to Kudzu vine root systems through a perforated tube; type: in vivo
Description: With respect to the helium canister 33, two canisters, each having 0.25 cubic meters of helium gas under a pressure (when full) of at least 260 pounds per square inch (PSI), for a total of 0.5 cubic meters at standard atmospheric pressure and temperature provide a suitable herbicidal effect when the canister 33 (only one of which canisters is shown in the drawing) are applied in sequence in accordance with the invention. […] Naturally, for Kudzu eradication over larger areas, large helium tanks also have been used with great success.
as §1, §2, §3
as §4, with “37. Upon depletion of the helium in the canister 33, the valve handle 34 is shifted to close the valve 28.” for “37.”

[He] [helium]
Effect of Kudzu vine treatment on surrounding plant life [1]: surprisingly beneficial | Kudzu vine herbicidal result ([2]; Balloon Time helium canisters, helium purity 94% to 96%, two canisters of 0.25 cubic meters applied in sequence): produced the desired Kudzu vine herbicidal result | Kudzu destroyed (estimated) ([2]; four weeks after exposure to helium, third test site): ~95% | Kudzu vines destroyed ([2]; four weeks after exposure to helium, two test sites, about 0.5 cubic meters helium into soil near roots): all of the Kudzu vines so treated were destroyed
